Data published in patent US20240182456A1, “2-((4-((S)-2-(4-CHLORO-2-FLUOROPHENYL)-2-METHYLBENZO[D][1,3]DIOXOL-4-YL)PIPERIDIN-1-YL)METHYL)-1-(((S)-OXETAN-2-YL)METHYL)-1H-IMIDAZOLE DERIVATIVES AS ACTIVATORS OF THE GLP1 RECEPTOR FOR THE TREATMENT OF OBESITY” (Novartis AG, priority 2021, published 2024).

What was measured:
human GLP1R (hGLP1R) = human GLP1R (hGLP1R) (Homo sapiens, UniProt P43220); experiment: Human GLP1R cAMP agonist assay (GloSensor); format: cell-based; conditions: HEK293-SNAP-hGLP1R-GloSensor cells; for Emax: read-out: Emax mean; for EC50: intracellular cAMP, mean n=3 where SEM is given
Chain of human GLP1R (hGLP1R) (P43220 24-463): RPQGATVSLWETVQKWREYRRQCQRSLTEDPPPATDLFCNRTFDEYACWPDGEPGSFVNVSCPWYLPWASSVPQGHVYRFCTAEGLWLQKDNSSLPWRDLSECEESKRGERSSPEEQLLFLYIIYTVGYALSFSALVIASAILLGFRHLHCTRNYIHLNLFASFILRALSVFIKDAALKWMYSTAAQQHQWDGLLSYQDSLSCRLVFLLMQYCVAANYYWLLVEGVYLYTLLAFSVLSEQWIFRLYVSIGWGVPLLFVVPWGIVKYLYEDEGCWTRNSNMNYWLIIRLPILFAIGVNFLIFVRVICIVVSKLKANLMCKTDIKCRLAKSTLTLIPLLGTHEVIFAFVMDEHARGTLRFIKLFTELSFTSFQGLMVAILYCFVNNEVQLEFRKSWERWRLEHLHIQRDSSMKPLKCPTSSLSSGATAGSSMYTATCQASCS
Method: Compounds 1 to 31 were tested in the following cellular assays that measure the intracellular cAMP concentration, beta-arrestin recruitment and receptor internalization. The cAMP is generated by the activation of GLP1R. The cAMP data obtained is shown in Table 1 (where S.E.M. is included, mean n=3 independent experiments+/−S.E.M). Beta-arrestin is recruited upon activation of GLP1R and the data obtained are shown in Table 2 (mean n=2 independent experiments, +/−S.D). The extent to which the GLP1R is internalized into the cell and away from the plasma membrane following activation is also shown in Table 2 (mean n=2 independent experiments, +/−S.D). EC50 for each assay is defined as the concentration of the compound that leads to half of the maximum response (after baseline correction). Emax is defined as the maximum response observed for the test compound, normalized to the maximum response observed for the endogenous ligand (GLP1(7-36)) to GLP1R.
Human GLP1R cAMP Agonist Assay
The agonist activity of compounds was determined using the GloSensor™ cAMP Assay (Promega Corp.), which measures changes in the intracellular concentration of cAMP after ligand activation of GPCRs. The assay uses a biosensor encoded by pGloSensor™-22F cAMP plasmid (Promega, cat #E2301) with cAMP binding domains fused to a mutant form of Photinus pyralis luciferase. Binding to cAMP causes conformational changes that promote large increases in light output, which can be measured by a luminescence detector. HEK293-SNAP-hGLP1R-GloSensor cells stably overexpressing the human GLP1 receptor (hGLP1R) and pGloSensor™-22F were seeded in white 384-well poly-D-Lysine coated plates (Greiner Bio One, cat #781945) in CO2-independent media (Gibco cat #18045-088 with 1.0% FBS, 2 mM L-glutamine, penicillin and streptomycin) and incubated overnight at 37° C., 5% CO2 with humidity. The assay was started the following morning by adding an equal volume of CO2-independent media containing 4% v/v dilution of the GloSensor substrate (Promega, cat #E1291) to all wells. The cell plate was incubated at rt for 2 h in the dark. The Biomek 7 (Beckman Coulter) instrument was used for the liquid handling steps. To generate duplicate dose response curves, 3-fold serially diluted compounds were added in to the cell assay plate to a final volume of 60 μL with final concentrations ranging from 30 μM through 0.06 μM in CO2-independent media containing 0.1% BSA, 0.5 mM IBMX and 0.4% DMSO. In the same plate and assay buffer as the tested compounds, were EC100 control wells containing GLP1 (7-36) peptide (Bachem, cat #H-6795) at a final concentration of 2 nM and also EC0 control wells containing no peptide. This plate was incubated at rt in the dark for 12 min after adding the compounds to the cells. Luminescence was then measured with an Envision 2104 Multilabel reader with “TRF Light Unit, 337 nm” (PerkinElmer) using the Ultra-Sensitive protocol setting “384-well US luminescence detector” with the 384-well luminescence aperture, 0.1 seconds per well. cAMP activity was calculated as percent of the GLP1 (7-36) EC100 control wells: [(sample signal−mean EC0 signal)/(mean EC100 of GLP1 (7-36) signal−mean EC0 signal)}*100. Curve fitting for EC50 determinations was performed in the Helios module of the software package DAVID. The 4-parameter logistic model, Hill slope was used: y=Ainf+(A0−Ainf)/(1+(x/AC50)^Hill Slope) where y is the functional response; x is the compound concentration; A0 is the minimum value (at 0 dose); Ainf is the maximum value (at infinite dose); AC50 corresponds to the point of inflection (i.e. the point on the sigmoid shaped curve halfway between A0 and Ainf). The EC50 value was represented by the AC50 value calculated from Helios in μM. Emax is the maximal activity detected within the concentration range, derived from the fitted curve. […]

[1] = Pharmacokinetics in C57BL/6 mice (i.v. and oral); conditions: for AUC(0-inf) / Vd / clearance / half-life / Cmax / Tmax: male, C57BL/6, mouse; for BAV: male C57BL/6 mice, 3 mg/kg oral dose vs 1 mg/kg i.v.
Method: Blood concentration versus time profiles were obtained from 2 groups of 3 male mice. The compound was administered intravenously (i.v.) by bolus injection (5 mL/kg) at a dose of 1 mg/kg in N-methyl-2-pyrrolidone (10%) and 4% bovine serum albumins (BSA) in phosphate-buffered saline (PBS) (90%) or orally administered at a dose of 3 mg/kg (10 mL/kg) as a homogenous suspension of Water (99.4%), Tween 80 (0.1%) and methylcellulose (0.5%). Following compound administration, blood (10 μL/time point) were collected by puncture of the tail vein into ethylenediaminetetraacetic (EDTA)-coated tubes, at 0.083 (i.v. only), 0.25, 0.5, 1, 3, 7, & 24 hours post dose.
Bioanalysis: An aliquot of 10 μL of blood sample and matrix calibration standards were added to a 96-well plate. The samples were extracted using a protein precipitation procedure with addition of 80 μL acetonitrile containing internal standard. The samples were vortexed and centrifuged at 3000 rpm for 5 minutes. A 70 μL aliquot of supernatant was transferred to a clean 96-well plate and a 70 μL of water was added to each well and vortexed. Samples were analyzed and quantified by LC-MS/MS using the conditions outlined below.
• Mass Spectrometer: AP16500+ • Liquid Chromatograph: Agilent 1290 for Compound 3; Shimadzu LC30 AD for Compound 5 • Autosampler (ALS): Agilent 1290 for Compound 3; Shimadzu SIL30AC for Compound 5
• LC Column Acquity BEH C18, 50×2.1 mm, 1.7 μm • Solvent A: • 5:95:0.1 (v:v:v) Acetonitrile:Water:Formic Acid for Compound 3 • 100:0.1 (v:v) Water:Formic acid for Compound 5 • Solvent B: • 50:50:0.1 (v:v:v) Acetonitrile:Methanol:Formic Acid for Compound 3 • 100:0.1 (v:v) Acetonitrile:Formic acid for Compound 5 • Injection Volume [μL]: 1 for Compound 5; 20 for Compound 3 • Column Oven Temp. [° C.]: 50 Compound 3; 40 for Compound 5 • ALS Temp. [° C.]: 5
• Ion Source: TIS • Polarity: Positive • Temperature: 550 • Gas 1: 55 • Gas 2: 55 • Curtain Gas: 20 • Ion Spray Voltage [V]: 5500 for Compound 5; 4500 for Compound 3 • CAD Gas: 9

[2] = cAMP, normalized to GLP1(7-36) maximum response

With `Cc1nc(CN2CCC(c3cccc4c3O[C@@](C)(c3ccc(Cl)cc3F)O4)CC2)n(C[C@@H]2CCO2)c1C(O)CC(=O)O` (mixture of isomers) [Compound C-28, 3-(2-((4-((S)-2-(4-chloro-2-fluorophenyl)-2-methylbenzo[d][1,3]dioxol-4-yl)piperidin-1-yl)methyl)-4-methyl-1-(((S)-oxetan-2-yl)methyl)-1H-imidazol-5-yl)-3-hydroxypropanoic acid] the Emax (human GLP1R (hGLP1R); [2]) was 110% and the EC50 (human GLP1R (hGLP1R)) was 1.08 nM.
`CC(Cc1cnc(CN2CCC(c3cccc4c3O[C@@](C)(c3ccc(Cl)cc3F)O4)CC2)n1C[C@@H]1CCO1)C(=O)O` (single isomer, unassigned) [Compound C-17a] gave an Emax (human GLP1R (hGLP1R); [2]) of 104% and an EC50 (human GLP1R (hGLP1R)) of 1.2 nM.
Work on `CC(Cc1cnc(CN2CCC(c3cccc4c3O[C@@](C)(c3ccc(Cl)cc3F)O4)CC2)n1C[C@@H]1CCO1)C(=O)O` (single isomer, unassigned) [Compound C-17b] yielded an Emax mean (human GLP1R (hGLP1R); [2]) of 106% and an EC50 (human GLP1R (hGLP1R)) of 1.2 nM.
Work on `C[C@]1(c2ccc(Cl)cc2F)Oc2cccc(C3CCN(Cc4ncc(/C=C/C(=O)O)n4C[C@@H]4CCO4)CC3)c2O1` [Compound 1] yielded an AUC(0-inf) ([1]; whole blood, iv, 1 mg/kg) of 0.509 ± 0.389 µM·h, a Vd ([1]; whole blood, iv, 1 mg/kg) of 4.83 ± 1.79 L/kg and a clearance ([1]; whole blood, iv, 1 mg/kg) of 82.3 ± 51.7 mL/min/kg. It also gave a half-life ([1]; whole blood, iv, 1 mg/kg) of 1.06 ± 0.141 h, an AUC(0-inf) ([1]; whole blood, po, 3 mg/kg) of 0.538 ± 0.136 µM·h and a Cmax ([1]; whole blood, po, 3 mg/kg) of 240 ± 75.4 nM. It also gave a Tmax ([1]; whole blood, po, 3 mg/kg) of 0.75 ± 0.434 h and a half-life ([1]; whole blood, po, 3 mg/kg) of 1.22 ± 0.305 h.
In the case of `Cc1nc(CN2CCC(c3cccc4c3O[C@@](C)(c3ccc(Cl)cc3F)O4)CC2)n(C[C@@H]2CCO2)c1C(=O)O` [Compound 3], the BAV [1] is reported as 50.1 ± 19.4%, the AUC(0-inf) ([1]; in vivo, iv, 1 mg/kg) is reported as 2.79 ± 1.35 µM·h and the Vd ([1]; in vivo, iv, 1 mg/kg) is reported as 0.903 ± 0.282 L/kg. For the same compound, the clearance ([1]; in vivo, iv, 1 mg/kg) was 12.3 ± 4.78 mL/min/kg, the half-life ([1]; in vivo, iv, 1 mg/kg) was 1.28 ± 0.223 h and the AUC(0-inf) ([1]; in vivo, po, 3 mg/kg) was 3.74 ± 0.641 µM·h. For the same compound, the Cmax ([1]; in vivo, po, 3 mg/kg) was 1470 ± 354 nM, the Tmax ([1]; in vivo, po, 3 mg/kg) was 0.667 ± 0.289 h and the half-life ([1]; in vivo, po, 3 mg/kg) was 1.84 ± 0.8 h.
`Cc1nc(CN2CCC(c3cccc4c3O[C@@](C)(c3ccc(Cl)cc3F)O4)CC2)n(C[C@@H]2CCO2)c1/C=C/C(=O)O` [Compound 5] showed an AUC(0-inf) ([1]; whole blood, iv, 1 mg/kg) of 5.02 ± 0.629 µM·h, a Vd ([1]; whole blood, iv, 1 mg/kg) of 0.604 ± 0.02 L/kg and a clearance ([1]; whole blood, iv, 1 mg/kg) of 5.76 ± 0.711 mL/min/kg. The half-life ([1]; whole blood, iv, 1 mg/kg) was 1.42 ± 0.121 h, the AUC(0-inf) ([1]; whole blood, po, 3 mg/kg) was 7.91 ± 0.764 µM·h and the Cmax ([1]; whole blood, po, 3 mg/kg) was 1060 ± 450 nM. For the same compound, the Tmax ([1]; whole blood, po, 3 mg/kg) was 1 h and the half-life ([1]; whole blood, po, 3 mg/kg) was 2.82 ± 0.74 h.
`C[C@]1(c2ccc(Cl)cc2F)Oc2cccc(C3CCN(Cc4nc(C(F)(F)F)c(/C=C/C(=O)O)n4C[C@@H]4CCO4)CC3)c2O1` [Compound 8] gave a BAV [1] of 60.9 ± 5.26%, an AUC(0-inf) ([1]; in vivo, iv, 1 mg/kg) of 3.75 ± 0.149 µM·h and a Vd ([1]; in vivo, iv, 1 mg/kg) of 1.65 ± 0.025 L/kg. The clearance ([1]; in vivo, iv, 1 mg/kg) was 7 ± 0.283 mL/min/kg, the half-life ([1]; in vivo, iv, 1 mg/kg) was 3.02 ± 0.168 h and the AUC(0-inf) ([1]; in vivo, po, 3 mg/kg) was 6.86 ± 0.591 µM·h. It also gave a Cmax ([1]; in vivo, po, 3 mg/kg) of 768 ± 112 nM, a Tmax ([1]; in vivo, po, 3 mg/kg) of 1 h and a half-life ([1]; in vivo, po, 3 mg/kg) of 2.7 ± 0.202 h.
